Laboratory results taken from US20110066134A1, “Controlling Drug Transport and Current in Iontophoretic Onychomycosis Treatment” (Nitric Biotherapeutics, Inc., priority 2009, published 2011).
Where “and” joins values, the source holds several entries; their conditions need not be identical. Equal entries are not always repeated.

Tests used:
[1] = Cadaver toe delivery testing: iontophoretic terbinafine loading into nail, nail bed and surrounding tissue; assay type: in vitro ADME
Protocol: The results of drug loading experiments in cadaver toes reported by Nair [Nair et al., 2009, Pharm Res. 26(9):2194-201] were compared with current measurements made using the current test fixture of FIG. 1 and models for the two tissue groups. The experiments disclosed herein were conducted to determine 1) if a drug delivery gradient existed in masked drape applications, and how that correlated with drug assays in cadaver toes; and 2) to determine the proportion of current flowing in soft tissue vs. into nail in cadaver toe delivery, and to compare that with drug loading found by Nair in the two tissue types. It is believed that the transfer efficiency is higher in nail than into soft tissue.
Cadaver Toe Delivery Testing: Six cadaver toes were soaked in physiologic saline prior to treatment. Each terbinafine loaded applicator type (masked drape and full drape) was placed on the toe and iontophoretic treatment of 0.5 mA for 20 min was delivered. Post treatment, the nails, and sections of nail bed and surrounding tissue, were excised and analyzed. The amount of loaded terbinafine was compiled for each section. The iontophoretic power source and general configuration for the applicator on the cadaver toe are depicted in FIGS. 2A and 2B. Additional details regarding methods used and experimental details for cadaver toe delivery tests can be found in [Nair et al., 2009, Pharm Res. 26(9):2194-201].
FIG. 3A depicts drug assay results from cadaver nails following iontophoresis using a masked drape applicator, while FIG. 3B depicts current measurements taken at the same current levels through cadaver nail into agarose. Terbinafine sample data was compiled allocating samples to the same relative spacing as current sensing nodes in the current test fixture of FIG. 1. […] Results of finite element analysis for essentially masked electrodes over tissue that illustrate gradients with higher resolution can also be seen as provided by Kresteva and Papazov [Krasteva et al., Biomed Eng Online. 2002 Dec. 16; 1:7].
where tx is the transport number, F is Faraday's constant, A is area of application and zx is charge. For a particular “membrane” or “tissue type”, tx is the ratio of (charge, mobility and drug concentration of the charge carrier) to the product of these for all charge carriers, i is current and vcx is an electroosmotic term. Rather than determine individual elements of Kalia's formula, an aggregate transport number of skin (tskin) and nail & nail bed (tnail) can be calculated, essentially aggregating the factors and segmenting them into soft tissue plus nail/nail bed.
Where l is the amount of drug loaded for skin or nail. For a given dose in uA-min, the amount of terbinafine loaded into cadaver nail & nail bed vs. cadaver skin vs. delivered dose and calculated transfer number is
ltotal=lskin+lnail,lskin=dskin×tskin and lnail=dnail×tnail in ug/mA-min, (5)
where dskin, dnail is the product of current through skin (or nail) and time (dose), tskin, tnail is an aggregate of all factors related to delivery into skin (or nail) and lskin, lnail is the amount of terbinafine loaded into skin (or nail).
Table III lists the areas of delivery, current and transfer number calculations for the 6 cadaver toe trials. FIG. 9 depicts the average transport numbers including values calculated for current (for reference), skin alone in Franz cell and Rat.

clinical = conditions: human, in vivo
Protocol: Both applicator designs were used in clinical studies, including clinical nail samples at various iontophoretic dose levels taken 24 hours post treatment. For an average dose of about 8 mA-min, drug amounts for masked drape clipping assays averaged about 423 ug/g and full drape clippings averaged about 842 ug/g. The clipping sizes and volumes varied (n=80, mean=[…], sd=1.8). The amount of drug found in nail clippings for the masked drape treatments appeared to be lower than expected given the higher current concentration in nail vs. levels found for the full drape treatments at a lower level of nail current.
It is believed that the lower drug levels found during the clinical study from nail clippings in the masked drape applications was the result of samples at the extremities of the nail. As contemplated herein, the presence of a drug delivery gradient is supported by the location of clinical nail samples, the results of current distribution modeling and the cadaver toe experiments.
For example, the current measurement and drug loading maps for cadaver nail and toe as depicted in FIG. 3 indicate a significant gradient. Drug loading at the periphery of the nail was about 26 to 77 times less than drug loading in the center of the nail. Nail clippings for the masked drape group in the clinical studies provided herein were taken about 24 hours post treatment from the distal nail. Samples varied in size and volume, but averaged about 1.8 mm long. This size and location corresponds with the nail sampling performed in the cadaver toe experiments in the category of “peripheral 2” or “remaining” and depicted in FIG. 3A in about the 9 to 12 mm range. The current levels predicted by the model in the same areas correlate well with drug distribution samples, r=0.998, p=0.000.
Applying the cadaver transfer number for nail vs. skin to the in-vivo results yields an estimate for nail and drug delivered for both tissues (based upon resistance ratios calculated from measured voltages during the clinical study.)
FIG. 10 depicts the projected delivery of terbinafine into skin and nail for full drape using cadaver transfer number calculation. The mean level of terbinafine estimated to have been delivered with full drape treatments to patients in the clinical studies using this method is about 12.4 ug skin, 9.4 ug nail, as compared with a mean of about 15 ug skin and 14 ug nail for cadaver toes.

[2] = cadaver toe, full drape, 0.5 mA for 20 min, average of 6 trials
[3] = cadaver toe, full drape, 0.5 mA for 20 min, individual Trials 1-6

- tf nail = (ug/cm^2)/(dose/cm^2), Avg [1, 2]: 5.180 (ug/cm^2)/(dose/cm^2)
- tf skin = (ug/cm^2)/(dose/cm^2), Avg [1, 2]: 2.181 (ug/cm^2)/(dose/cm^2)
- delivery into skin compared with nail & nail bed ([1]; cadaver toes, about 0.5 mA for 20 min, p=0.78, n=6): statistical equivalence
- mean terbinafine delivered to nail ([1]; cadaver toes, full drape): ~14 µg
- mean terbinafine delivered to skin ([1]; cadaver toes, full drape): about 15 ug
- mean level of terbinafine estimated to have been delivered to nail (clinical): ~9.4 µg
- mean level of terbinafine estimated to have been delivered to skin (clinical): about 12.4 ug
- concentration at 24 h (clinical; Mean Nail Levels, Applicator Design Nail/Skin): 988000 ng/g
- concentration at 24 h (clinical; average drug amount in full drape clippings): ~842000 ng/g
- concentration at 24 h (clinical; average drug amount in masked drape clipping assays): ~423000 ng/g
SMILES: CN(C/C=C/C#CC(C)(C)C)Cc1cccc2ccccc12 [terbinafine]
- tf nail = (ug/cm^2)/(dose/cm^2) [1, 3]: 6.358 (ug/cm^2)/(dose/cm^2) and 7.438 (ug/cm^2)/(dose/cm^2) and 3.805 (ug/cm^2)/(dose/cm^2) and 2.328 (ug/cm^2)/(dose/cm^2) and 3.917 (ug/cm^2)/(dose/cm^2) and 7.237 (ug/cm^2)/(dose/cm^2)
- tf skin = (ug/cm^2)/(dose/cm^2) [1, 3]: 1.745 (ug/cm^2)/(dose/cm^2) and 1.632 (ug/cm^2)/(dose/cm^2) and 1.975 (ug/cm^2)/(dose/cm^2) and 2.368 (ug/cm^2)/(dose/cm^2) and 1.961 (ug/cm^2)/(dose/cm^2) and 3.403 (ug/cm^2)/(dose/cm^2)
- aggregate transport number for the nail-only application compared with nail in the full drape application ([1]; cadaver toe, n=4, p=0.032): less than the factor for nail in the full drape application
